Key:
Type in all cases: in vivo
[1] = test system: Surinam grass (Brachiaria decumbens); test: Test B pre/postemergence
Outline: (§1)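 Test chemicals in a non-phytotoxic solvent mixture with surfactant were applied preemergence to planted seeds and postemergence to plants 2 to 18 cm tall (1- to 4-leaf stage). After 13 to 15 days in a greenhouse, injury was visually rated against untreated controls on a 0 to 100 scale.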

[2] = test system: barnyardgrass (Echinochloa crus-galli); test: Test B pre/postemergence
Outline: as §1

[3] = test system: cocklebur (Xanthium strumarium); test: Test B pre/postemergence
Outline: as §1

corn (Zea mays) = test: Test B pre/postemergence
Outline: as §1

[4] = test system: crabgrass (Digitaria sanguinalis); test: Test B pre/postemergence
Outline: as §1

[5] = test system: giant foxtail (Setaria faberii); test: Test B pre/postemergence
Outline: as §1

[6] = test system: lambsquarters (Chenopodium album); test: Test B pre/postemergence
Outline: as §1

[7] = test system: morningglory (Ipomoea coccinea); test: Test B pre/postemergence
Outline: as §1

[8] = test system: pigweed (Amaranthus retroflexus); test: Test B pre/postemergence
Outline: as §1

[9] = test system: velvetleaf (Abutilon theophrasti); test: Test B pre/postemergence
Outline: as §1

[10] = test system: wheat (Triticum aestivum); test: Test B pre/postemergence
Outline: as §1

[11] = test system: blackgrass (Alopecurus myosuroides); test: Test B postemergence; settings: for Blackgrass plant response rating: 125 g ai/ha, scale 0 to 100 (0 no effect, 100 complete control); for Plant response rating, Blackgrass: 500 g ai/ha, scale 0 to 100
Outline: as §1

wild oat (Avena fatua) = test: Test B postemergence; settings: for Oat, Wild plant response rating: 125 g ai/ha, scale 0 to 100 (0 no effect, 100 complete control); for Plant response rating, Oat, Wild: 500 g ai/ha, scale 0 to 100
Outline: as §1

[12] = test system: barnyardgrass (Echinochloa crus-galli); test: Test B flooded paddy test; settings: Flood, 1000 g ai/ha; scale 0 (no effect) to 100 (complete control)
Outline: (§2)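 Plants were grown to the 2-leaf stage before treatment, then kept in a greenhouse for 13 to 15 days. Injury was rated visually against untreated controls on a 0 to 100 scale, where 0 is no effect and 100 is complete control.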

[13] = test system: duck salad (Heteranthera limosa); test: Test B flooded paddy test; settings: Flood, 1000 g ai/ha; scale 0 to 100
Outline: as §2

rice (Oryza sativa) = test: Test B flooded paddy test; settings: Flood, 1000 g ai/ha; scale 0 to 100
Outline: as §2

[14] = test system: umbrella sedge (Cyperus difformis); test: Test B flooded paddy test; settings: Flood, 1000 g ai/ha; scale 0 to 100
Outline: as §2

[15] = Postemergence, 125 g ai/ha, scale 0 to 100 (0 no effect, 100 complete control)
[16] = Postemergence, 500 g ai/ha, scale 0 to 100
[17] = Preemergence, 125 g ai/ha, scale 0 to 100 (0 no effect, 100 complete control)
[18] = Preemergence, 500 g ai/ha, scale 0 to 100 (0 no effect, 100 complete control)

CCOC(=O)c1nc(C2CC2)nc(N=CN(C)C)c1Br [Compound 40]
Surinam Grass plant response rating [1, 15]: 0 | Plant response rating, Surinam Grass [1, 16]: 70 | Plant response rating, Surinam Grass [1, 17]: 50 | Surinam Grass plant response rating [1, 18]: 70 | Barnyardgrass plant response rating [2, 15]: 0 | Plant response rating, Barnyardgrass [2, 16]: 90 | Plant response rating, Barnyardgrass [2, 17]: 50 | Barnyardgrass plant response rating [2, 18]: 90 | Cocklebur plant response rating [3, 15]: 0 | Plant response rating, Cocklebur [3, 16]: 90 | Plant response rating, Cocklebur [3, 17]: 90 | Cocklebur plant response rating [3, 18]: 100 | Corn plant response rating (corn (Zea mays); [15]): 0 | Plant response rating, Corn (corn (Zea mays); [16]): 60 | Plant response rating, Corn (corn (Zea mays); [17]): 0 | Corn plant response rating (corn (Zea mays); [18]): 50 | Crabgrass plant response rating [4, 15]: 0 | Plant response rating, Crabgrass [4, 16]: 80 | Plant response rating, Crabgrass [4, 17]: 60 | Crabgrass plant response rating [4, 18]: 80 | Foxtail, Giant plant response rating [5, 15]: 0 | Plant response rating, Foxtail, Giant [5, 16]: 60 | Plant response rating, Foxtail, Giant [5, 17]: 20 | Foxtail, Giant plant response rating [5, 18]: 80 | Lambsquarters plant response rating [6, 15]: 0 | Plant response rating, Lambsquarters [6, 16]: 100 | Plant response rating, Lambsquarters [6, 17]: 100 | Lambsquarters plant response rating [6, 18]: 100 | Morningglory plant response rating [7, 15]: 0 | Plant response rating, Morningglory [7, 16]: 100 | Plant response rating, Morningglory [7, 17]: 90 | Morningglory plant response rating [7, 18]: 100 | Pigweed plant response rating [8, 15]: 0 | Plant response rating, Pigweed [8, 16]: 100 | Plant response rating, Pigweed [8, 17]: 90 | Pigweed plant response rating [8, 18]: 100 | Velvetleaf plant response rating [9, 15]: 0 | Plant response rating, Velvetleaf [9, 16]: 90 | Plant response rating, Velvetleaf [9, 17]: 90 | Velvetleaf plant response rating [9, 18]: 90 | Wheat plant response rating [10, 15]: 50 | Plant response rating, Wheat [10, 16]: 60 | Plant response rating, Wheat [10, 17]: 40 | Plant response rating, Wheat [10, 18]: 70 | Blackgrass plant response rating [11]: 50 | Plant response rating, Blackgrass [11]: 60 | Oat, Wild plant response rating (wild oat (Avena fatua)): 40 | Plant response rating, Oat, Wild (wild oat (Avena fatua)): 60 | Plant response rating, Barnyardgrass [12]: 70 | Plant response rating, Ducksalad [13]: 80 | Plant response rating, Rice (rice (Oryza sativa)): 60 | Plant response rating, Sedge, Umbrella [14]: 70

CCCOC(=O)c1nc(C2CC2)nc(N)c1Br [Compound 15]
Surinam Grass plant response rating [1, 15]: 60 | Plant response rating, Surinam Grass [1, 16]: 90 | Plant response rating, Surinam Grass [1, 17]: 30 | Surinam Grass plant response rating [1, 18]: 90 | Barnyardgrass plant response rating [2, 15]: 90 | Plant response rating, Barnyardgrass [2, 16]: 90 | Plant response rating, Barnyardgrass [2, 17]: 40 | Barnyardgrass plant response rating [2, 18]: 90 | Cocklebur plant response rating [3, 15]: 100 | Plant response rating, Cocklebur [3, 16]: 100 | Plant response rating, Cocklebur [3, 17]: 70 | Cocklebur plant response rating [3, 18]: 100 | Corn plant response rating (corn (Zea mays); [15]): 50 | Plant response rating, Corn (corn (Zea mays); [16]): 80 | Plant response rating, Corn (corn (Zea mays); [17]): 20 | Corn plant response rating (corn (Zea mays); [18]): 80 | Crabgrass plant response rating [4, 15]: 30 | Plant response rating, Crabgrass [4, 16]: 60 | Plant response rating, Crabgrass [4, 17]: 70 | Crabgrass plant response rating [4, 18]: 90 | Foxtail, Giant plant response rating [5, 15]: 40 | Plant response rating, Foxtail, Giant [5, 16]: 70 | Plant response rating, Foxtail, Giant [5, 17]: 40 | Foxtail, Giant plant response rating [5, 18]: 80 | Lambsquarters plant response rating [6, 15]: 100 | Plant response rating, Lambsquarters [6, 16]: 100 | Plant response rating, Lambsquarters [6, 17]: 90 | Lambsquarters plant response rating [6, 18]: 100 | Morningglory plant response rating [7, 15]: 100 | Plant response rating, Morningglory [7, 16]: 100 | Plant response rating, Morningglory [7, 17]: 70 | Morningglory plant response rating [7, 18]: 100 | Pigweed plant response rating [8, 15]: 80 | Plant response rating, Pigweed [8, 16]: 100 | Plant response rating, Pigweed [8, 17]: 90 | Pigweed plant response rating [8, 18]: 100 | Velvetleaf plant response rating [9, 15]: 80 | Plant response rating, Velvetleaf [9, 16]: 90 | Plant response rating, Velvetleaf [9, 17]: 70 | Velvetleaf plant response rating [9, 18]: 100 | Wheat plant response rating [10, 15]: 40 | Plant response rating, Wheat [10, 16]: 70 | Plant response rating, Wheat [10, 17]: 40 | Wheat plant response rating [10, 18]: 60 | Blackgrass plant response rating [11]: 70 | Plant response rating, Blackgrass [11]: 80 | Oat, Wild plant response rating (wild oat (Avena fatua)): 10 | Plant response rating, Oat, Wild (wild oat (Avena fatua)): 70 | Plant response rating, Barnyardgrass [12]: 90 | Plant response rating, Ducksalad [13]: 80 | Plant response rating, Rice (rice (Oryza sativa)): 70 | Plant response rating, Sedge, Umbrella [14]: 70
